Data reported in patent US20250263436A1, “BROAD-SPECTRUM ANTIVIRAL DRUG FOR ENTEROVIRUS, AND APPLICATION” (WUHAN INSTITUTE OF VIROLOGY, CHINESE ACADEMY OF SCIENCES, priority 2020, published 2025).
pIC50: −log10 of the molar value. Several values for one entry are separate records, joined by “and”; a condition that tells them apart may be missing. Equal values may be shown once. Where no end group is shown, it is not given here.

Tested on: EV71
Assay: Inhibitory activity on EV71 in RD cells by CCK8 method
Format: cell-based, enterovirus 71 (EV71)
Details: for pIC50: EV71 in RD cells, CCK8 method; for Inhibition rate on EV71 virus (%): RD cells, 0.1 MOI, 24 h, CCK8
Method: (1) RD cells were plated in a 96-well plate at 100 μL per well.
(2) When the cells grew to a confluence of 70%-80%, the DMEM medium containing 10% serum was replaced with a DMEM medium containing 2% serum.
(§1) (3) The polypeptide drug was gradiently diluted with the DMEM containing 2% FBS into concentrations of 0.15625 μM, 0.3125 μM, 0.625 μM, 1.25 μM, 2.5 μM, and 5 μM, and then added to a new 96-well plate at 100 μL per well, with 3 replicate wells for each concentration.
(4) The diluted virus was added to the above wells at 100 μL per well. The wells with no drug and no virus added and the wells with no drug but virus added were set as controls respectively, with a final concentration of virus of 0.1 MOI.
(4) The mixture was transferred into the 96-well plate plated with cells for another 24 h of culture, and the inhibitory activity of the polypeptide on the virus was determined by a CCK8 kit.
(5) The inhibition rates of different concentrations of the polypeptides on virus infection were calculated according to a calculation formula of: inhibition rate of polypeptide=(well with drug-well with virus)×100%/(well with no drug-well with virus).
as §1, with “concentration. (4) The diluted virus was added to the above wells at 100 μL per well. The wells with no drug and no virus added and the wells with no drug but virus added were set as controls respectively, with a final concentration of virus of 0.1 MOI.” for “concentration.”

Molecule	pIC50	Inhibition rate on EV71 virus (%) (polypeptide 0.15625 μM)	Inhibition rate on EV71 virus (%) (polypeptide 0.3125 μM)	Inhibition rate on EV71 virus (%) (polypeptide 0.625 μM)	Inhibition rate on EV71 virus (%) (polypeptide 1.25 μM)	Inhibition rate on EV71 virus (%) (polypeptide 2.5 μM)	Inhibition rate on EV71 virus (%) (polypeptide 5 μM)
CC[C@H](C)[C@H](NC(=O)[C@H](C)NC(=O)[C@H](CO)NC(=O)[C@H](CCCNC(=N)N)NC(=O)CNC(=O)[C@H](CO)NC(=O)CNC(=O)[C@H](CCCNC(=N)N)NC(=O)[C@H](CCCNC(=N)N)NC(=O)[C@H](CCCNC(=N)N)NC(=O)[C@H](CCC(N)=O)NC(=O)[C@H](CCCNC(=N)N)NC(=O)[C@H](CCCNC(=N)N)NC(=O)[C@H](CCCCN)NC(=O)[C@H](CCCCN)NC(=O)[C@H](CCCNC(=N)N)NC(=O)CNC(=O)[C@@H](N)Cc1ccc(O)cc1)C(=O)NCC(=O)N[C@@H](CC(N)=O)C(=O)N[C@H](C(=O)N[C@H](C(=O)N[C@@H](CCC(=O)O)C(=O)N[C@@H](C)C(=O)N[C@@H](CC(C)C)C(=O)N[C@@H](Cc1ccccc1)C(=O)N[C@@H](CCC(N)=O)C(=O)O)[C@@H](C)CC)[C@@H](C)O [RSQ]	5.59	1.471% and 6.588% and 2.826%	11.34% and 21.2746% and 16.4228%	18.633% and 25.8298% and 26.1918%	40.5468% and 36.4575% and 35.2676%	53.4848% and 40.7778% and 47.2122%	58.6022% and 68.9642% and 62.4952%
YGRKKRRQRRRGSGTIEALFQ [TQ]	5.75	3.314% and 5.356% and 7.23%	–	33.3736% and 28.4011% and 30.3085%	35.3209% and 40.3898% and 46.2471%	59.3508% and 67.3559% and 55.2235%	71.3029% and 65.3559% and 69.2301%
YGRKKRRQRRRGSGIEALFQ [IEQ]	5.61	11.724% and 8.44% and 7.627%	18.8643% and 15.5487% and 10.6223%	20.7161% and 25.7224% and 19.5166%	33.6936% and 35.484% and 28.4286%	45.6995% and 48.4526% and 57.4377%	69.4739% and 61.3527% and 68.272%
YGRKKRRQRRRGSGIGNTIEALFQ [IQ]	5.79	12.0331% and 13.5849% and 7.368%	18.7401% and 22.4297% and 22.9573%	26.0539% and 31.1744% and 34.8606%	41.6022% and 42.578% and 47.4848%	55.7952% and 50.9781% and 60.5503%	73.2884% and 68.7332% and 83.2884%
YGRKKRRQRRRGSGAIGNTIEALFQ [AQ]	5.52	9.888% and 7.506% and 5.9715%	15.9607% and 11.702% and 12.6022%	26.3573% and 23.7158% and 19.5264%	33.3847% and 31.7366% and 38.7678%	58.9642% and 46.161% and 41.3092%	51.0435% and 51.8675% and 69.1952%
YGRKKRRQRRRGSGNTIEALFQ [NTQ]	5.64	2.654% and 4.744% and 5.743%	14.83% and 10.2542% and 13.3898%	20.84% and 30.339% and 24.339%	39.17% and 47.6271% and 50.8202%	45.42% and 51.9492% and 59.661%	68.27% and 52.5424% and 61.6949%
CC[C@H](C)[C@H](NC(=O)[C@H](C)NC(=O)[C@H](CO)NC(=O)[C@H](CCCNC(=N)N)NC(=O)[C@H](CC(N)=O)NC(=O)[C@H](CC(N)=O)NC(=O)[C@H](Cc1ccc(O)cc1)NC(=O)CNC(=O)[C@H](CO)NC(=O)CNC(=O)[C@H](CCCNC(=N)N)NC(=O)[C@H](CCCNC(=N)N)NC(=O)[C@H](CCCNC(=N)N)NC(=O)[C@H](CCC(N)=O)NC(=O)[C@H](CCCNC(=N)N)NC(=O)[C@H](CCCNC(=N)N)NC(=O)[C@H](CCCCN)NC(=O)[C@H](CCCCN)NC(=O)[C@H](CCCNC(=N)N)NC(=O)CNC(=O)[C@@H](N)Cc1ccc(O)cc1)C(=O)NCC(=O)N[C@@H](CC(N)=O)C(=O)N[C@H](C(=O)N[C@H](C(=O)N[C@@H](CCC(=O)O)C(=O)N[C@@H](C)C(=O)N[C@@H](CC(C)C)C(=O)N[C@@H](Cc1ccccc1)C(=O)N[C@@H](CCC(N)=O)C(=O)O)[C@@H](C)CC)[C@@H](C)O [YQ]	5.71	5.8298% and 7.33% and 11.0089%	15.102% and 10.7124% and 13.3881%	23.6157% and 20.9642% and 29.1606%	30.9365% and 28.1124% and 32.0401%	62.0331% and 53.8159% and 52.1987%	80.0886% and 71.2711% and 87.578%
CC[C@H](C)[C@H](NC(=O)[C@H](C)NC(=O)[C@H](CO)NC(=O)[C@H](CCCNC(=N)N)NC(=O)[C@H](CC(N)=O)NC(=O)[C@H](CC(N)=O)NC(=O)CNC(=O)[C@H](CO)NC(=O)CNC(=O)[C@H](CCCNC(=N)N)NC(=O)[C@H](CCCNC(=N)N)NC(=O)[C@H](CCCNC(=N)N)NC(=O)[C@H](CCC(N)=O)NC(=O)[C@H](CCCNC(=N)N)NC(=O)[C@H](CCCNC(=N)N)NC(=O)[C@H](CCCCN)NC(=O)[C@H](CCCCN)NC(=O)[C@H](CCCNC(=N)N)NC(=O)CNC(=O)[C@@H](N)Cc1ccc(O)cc1)C(=O)NCC(=O)N[C@@H](CC(N)=O)C(=O)N[C@H](C(=O)N[C@H](C(=O)N[C@@H](CCC(=O)O)C(=O)N[C@@H](C)C(=O)N[C@@H](CC(C)C)C(=O)N[C@@H](Cc1ccccc1)C(=O)N[C@@H](CCC(N)=O)C(=O)O)[C@@H](C)CC)[C@@H](C)O [NQ]	5.72	4.278% and 5.368% and 8.337%	11.5056% and 17.809% and 19.7228%	16.7886% and 21.2091% and 24.9365%	41.6538% and 40.8779% and 50.5607%	51.933% and 60.1502% and 57.7744%	60.6122% and 74.6708% and 75.3331%
CC[C@H](C)[C@H](NC(=O)[C@H](C)NC(=O)[C@H](CO)NC(=O)CNC(=O)[C@H](CO)NC(=O)CNC(=O)[C@H](CCCNC(=N)N)NC(=O)[C@H](CCCNC(=N)N)NC(=O)[C@H](CCCNC(=N)N)NC(=O)[C@H](CCC(N)=O)NC(=O)[C@H](CCCNC(=N)N)NC(=O)[C@H](CCCNC(=N)N)NC(=O)[C@H](CCCCN)NC(=O)[C@H](CCCCN)NC(=O)[C@H](CCCNC(=N)N)NC(=O)CNC(=O)[C@@H](N)Cc1ccc(O)cc1)C(=O)NCC(=O)N[C@@H](CC(N)=O)C(=O)N[C@H](C(=O)N[C@H](C(=O)N[C@@H](CCC(=O)O)C(=O)N[C@@H](C)C(=O)N[C@@H](CC(C)C)C(=O)N[C@@H](Cc1ccccc1)C(=O)N[C@@H](CCC(N)=O)C(=O)O)[C@@H](C)CC)[C@@H](C)O [SAQ]	5.54	3.547% and 2.726% and 6.819%	8.964% and 7.902% and 11.0435%	14.4055% and 11.5364% and 18.402%	27.4779% and 24.0778% and 33.4848%	47.0158% and 47.2468% and 36.2572%	75.1367% and 61.8367% and 63.2191%
CC[C@H](C)[C@H](NC(=O)[C@H](C)NC(=O)[C@H](CO)NC(=O)[C@H](CCCNC(=N)N)NC(=O)[C@H](CC(N)=O)NC(=O)[C@H](CC(N)=O)NC(=O)[C@H](Cc1ccc(O)cc1)NC(=O)[C@H](CCC(=O)O)NC(=O)CNC(=O)[C@H](CO)NC(=O)CNC(=O)[C@H](CCCNC(=N)N)NC(=O)[C@H](CCCNC(=N)N)NC(=O)[C@H](CCCNC(=N)N)NC(=O)[C@H](CCC(N)=O)NC(=O)[C@H](CCCNC(=N)N)NC(=O)[C@H](CCCNC(=N)N)NC(=O)[C@H](CCCCN)NC(=O)[C@H](CCCCN)NC(=O)[C@H](CCCNC(=N)N)NC(=O)CNC(=O)[C@@H](N)Cc1ccc(O)cc1)C(=O)NCC(=O)N[C@@H](CC(N)=O)C(=O)N[C@H](C(=O)N[C@H](C(=O)N[C@@H](CCC(=O)O)C(=O)N[C@@H](C)C(=O)N[C@@H](CC(C)C)C(=O)N[C@@H](Cc1ccccc1)C(=O)N[C@@H](CCC(N)=O)C(=O)O)[C@@H](C)CC)[C@@H](C)O [EQ]	5.74	6.885% and 4.675% and 10.9434%	10.2126% and 12.8194% and 16.4536%	21.5745% and 20.64% and 25.9399%	31.5814% and 30.7778% and 32.9503%	62.8263% and 54.1779% and 55.7124%	86.8541% and 90.3885% and 78.0023%
YGRKKRRQRRRGSGGNTIEALFQ [GQ]	5.75	7.219% and 10.3851% and 5.4678%	14.8883% and 12.0678% and 14.91%	28.8333% and 30.5125% and 26.48%	43.1263% and 40.6161% and 31.07%	51.8367% and 58.9472% and 57.2507%	71.5094% and 77.9438% and 84.7439%
